The text below walks through data of patent US20260078120A1, “SUBSTITUTED PYRIDOPYRIMIDINONES” (MIRATI THERAPEUTICS, INC., priority 2022, published 2026).

In experiment [1] the test system is SKBR3 (PI3Kα wild type) cells. As to the kind of experiment: CellTiter-Glo 2.0 luminescent cell viability assay, 72 hours, SKBR3 cells. It counts as cell-based. The following applies: SKBR3 (PI3Kα wild type) cells, CellTiter-Glo, approximately 72 hours, read-out: SKBR3 (WT) Viability IC50. An outline of the steps: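 Viability measured via CTG luminescence following roughly 72 hours of compound exposure at 37° C. Dosing used a 10 um starting concentration diluted 1:4 over 10 points; percent-of-vehicle data fitted with a variable-slope four-parameter model for IC50.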

Experiment [2] has as its system T47D (PI3Kα H1047R mutant) cells. As to the kind of experiment: CellTiter-Glo 2.0 luminescent cell viability assay, 72 hours, T47D cells. The class given is cell-based. The following applies: T47D (PI3Kα H1047R mutant) cells, CellTiter-Glo, approximately 72 hours, read-out: T47D (H1047R mutant) Viability IC50. An outline of the steps:
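Viability was measured by CellTiter-Glo 2.0 luminescence after approximately 72 h of compound exposure at 37° C. Plating was 1000 cells per well the day before dosing, with ten 1:4 dilutions from a 10 µM top concentration. Values as percent of vehicle were fitted by variable-slope log(inhibitor) regression to give IC50.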

Where two headings read alike, the source gives them in different places.

As to `[2H]C12CC(C3CCN(c4nc5c([C@@H](C)Nc6ccccc6C(=O)O)cc(C)cn5c(=O)c4C)CC3)(C1)C2` [Example 11-36, (R)-2-((1-(2-(4-(bicyclo[1.1.1]pentan-1-yl-3-d)piperidin-1-yl)-3,7-dimethyl-4-oxo-4H-pyrido[1,2-a]pyrimidin-9-yl)ethyl)amino)benzoic acid], the IC50 was greater than 10000 nM in experiment [1] (Homo sapiens, SK-BR-3, 72 h) and 390 nM in experiment [2] (Homo sapiens, T47D, 72 h).
For `Cc1cc([C@@H](C)Nc2ccccc2C(=O)O)c2nc(N3CCN(c4c(C)cccc4C)CC3)c(C)c(=O)n2c1` [Example 11-37, (R)-2-((1-(2-(4-(2,6-dimethylphenyl)piperazin-1-yl)-3,7-dimethyl-4-oxo-4H-pyrido[1,2-a]pyrimidin-9-yl)ethyl)amino)benzoic acid], the IC50 was greater than 10000 nM in experiment [1] (Homo sapiens, SK-BR-3, 72 h) and 816 nM in experiment [2] (Homo sapiens, T47D, 72 h).
As for `Cc1cc([C@@H](C)Nc2ccccc2C(=O)O)c2nc(N3Cc4cccc(F)c4C3)c(C)c(=O)n2c1` [Example 11-38, (R)-2-((1-(2-(4-fluoroisoindolin-2-yl)-3,7-dimethyl-4-oxo-4H-pyrido[1,2-a]pyrimidin-9-yl)ethyl)amino)benzoic acid], the IC50 was greater than 10000 nM in experiment [1] (Homo sapiens, SK-BR-3, 72 h) and 194 nM in experiment [2] (Homo sapiens, T47D, 72 h).
Take `COc1ccc(C2CCN(c3nc4c([C@@H](C)Nc5ccccc5C(=O)O)cc(C)cn4c(=O)c3C)CC2)cc1` [Example 11-39, (R)-2-((1-(2-(4-(4-methoxyphenyl)piperidin-1-yl)-3,7-dimethyl-4-oxo-4H-pyrido[1,2-a]pyrimidin-9-yl)ethyl)amino)benzoic acid]: the 50% inhibitory concentration (IC50) in experiment [1] (Homo sapiens, SK-BR-3, 72 h) was greater than 10000 nM; in experiment [2] (Homo sapiens, T47D, 72 h), 114 nM.
Regarding `Cc1cc([C@@H](C)Nc2ccccc2C(=O)O)c2nc(N3CCN(CC(F)F)CC3)c(C#N)c(=O)n2c1` [Example 11-42, (R)-2-((1-(3-cyano-2-(4-(2,2-difluoroethyl)piperazin-1-yl)-7-methyl-4-oxo-4H-pyrido[1,2-a]pyrimidin-9-yl)ethyl)amino)benzoic acid], the concentration for half-maximal inhibition (IC50) is greater than 10000 nM in experiment [1] (Homo sapiens, SK-BR-3, 72 h) and 172 nM in experiment [2] (Homo sapiens, T47D, 72 h).
Regarding `Cc1cc([C@H](C)Nc2ccc(F)nc2C(=O)O)c2nc(N3CCC(F)(F)CC3)c(C#N)c(=O)n2c1` [Example 11-43, (S)-3-((1-(3-cyano-2-(4,4-difluoropiperidin-1-yl)-7-methyl-4-oxo-4H-pyrido[1,2-a]pyrimidin-9-yl)ethyl)amino)-6-fluoropicolinic acid], the IC50 in experiment [1] (Homo sapiens, SK-BR-3, 72 h) is greater than 10000 nM; in experiment [2] (Homo sapiens, T47D, 72 h), 372 nM.
Consider `Cc1cc([C@@H](C)Nc2ccc(F)nc2C(=O)O)c2nc(N3CCC(F)(F)CC3)c(C#N)c(=O)n2c1` [Example 11-44, (R)-3-((1-(3-cyano-2-(4,4-difluoropiperidin-1-yl)-7-methyl-4-oxo-4H-pyrido[1,2-a]pyrimidin-9-yl)ethyl)amino)-6-fluoropicolinic acid], for which the half-inhibitory concentration (IC50) is greater than 10000 nM in experiment [1] (Homo sapiens, SK-BR-3, 72 h) and 9550 nM in experiment [2] (Homo sapiens, T47D, 72 h).
Regarding `Cc1cc([C@@H](C)Nc2ccc(F)nc2C(=O)O)c2nc(N3CCC(F)(F)CC3)c(C)c(=O)n2c1` [Example 11-45, (R)-3-((1-(2-(4,4-difluoropiperidin-1-yl)-3,7-dimethyl-4-oxo-4H-pyrido[1,2-a]pyrimidin-9-yl)ethyl)amino)-6-fluoropicolinic acid], the concentration for half-maximal inhibition (IC50) in experiment [1] is greater than 10000 nM; in experiment [2] it was 2970 nM.
Consider `Cc1cc([C@@H](C)Nc2ccc(C)nc2C(=O)O)c2nc(N3CCC(F)(F)CC3)c(C)c(=O)n2c1` [Example 11-46, (R)-3-((1-(2-(4,4-difluoropiperidin-1-yl)-3,7-dimethyl-4-oxo-4H-pyrido[1,2-a]pyrimidin-9-yl)ethyl)amino)-6-methylpicolinic acid], for which the IC50 in experiment [1] (Homo sapiens, SK-BR-3, 72 h) is greater than 10000 nM; in experiment [2] (Homo sapiens, T47D, 72 h), 150 nM.
With `Cc1cc([C@@H](C)Nc2ccccc2C(=O)O)c2nc(N3C[C@H](F)C[C@@H](F)C3)c(C#N)c(=O)n2c1` [Example 11-47, 2-(((R)-1-(3-cyano-2-((3R,5R)-3,5-difluoropiperidin-1-yl)-7-methyl-4-oxo-4H-pyrido[1,2-a]pyrimidin-9-yl)ethyl)amino)benzoic acid], the half-maximal inhibitory concentration (IC50) is greater than 10000 nM in experiment [1] (Homo sapiens, SK-BR-3, 72 h) and 242 nM in experiment [2] (Homo sapiens, T47D, 72 h).
Regarding `Cc1cc([C@@H](C)Nc2ccccc2C(=O)O)c2nc(N3C[C@H](F)C[C@H](F)C3)c(C#N)c(=O)n2c1` [Example 11-48, 2-(((R)-1-(3-cyano-2-((3R,5S)-3,5-difluoropiperidin-1-yl)-7-methyl-4-oxo-4H-pyrido[1,2-a]pyrimidin-9-yl)ethyl)amino)benzoic acid], the half-maximal inhibitory concentration (IC50) is greater than 10000 nM in experiment [1] (Homo sapiens, SK-BR-3, 72 h) and 854 nM in experiment [2] (Homo sapiens, T47D, 72 h).
Take `Cc1cc([C@@H](C)Nc2ccccc2C(=O)O)c2nc(NCC(C)C(F)(F)F)c(C#N)c(=O)n2c1` (stereo partly drawn) [Example 11-49, 2-(((1R)-1-(3-cyano-7-methyl-4-oxo-2-((3,3,3-trifluoro-2-methylpropyl)amino)-4H-pyrido[1,2-a]pyrimidin-9-yl)ethyl)amino)benzoic acid]: the IC50 is greater than 10000 nM in experiment [1] (Homo sapiens, SK-BR-3, 72 h) and 204 nM in experiment [2] (Homo sapiens, T47D, 72 h).
Regarding `C[C@@H](Nc1ccc(Cl)nc1C(=O)O)c1cc(Cl)cn2c(=O)c(C#N)c(N3CCC(F)(F)CC3)nc12` [Example 11-50, (R)-6-chloro-3-((1-(7-chloro-3-cyano-2-(4,4-difluoropiperidin-1-yl)-4-oxo-4H-pyrido[1,2-a]pyrimidin-9-yl)ethyl)amino)picolinic acid], the IC50 is greater than 10000 nM in experiment [1] (Homo sapiens, SK-BR-3, 72 h) and 217 nM in experiment [2] (Homo sapiens, T47D, 72 h).
Consider `Cc1cc([C@@H](C)Nc2ccccc2C(=O)O)c2nc(N[C@H](C)c3cccnc3)c(C#N)c(=O)n2c1` [Example 11-51, 2-(((R)-1-(3-cyano-7-methyl-4-oxo-2-(((R)-1-(pyridin-3-yl)ethyl)amino)-4H-pyrido[1,2-a]pyrimidin-9-yl)ethyl)amino)benzoic acid], for which the half-maximal inhibitory concentration (IC50) in experiment [1] (Homo sapiens, SK-BR-3, 72 h) was greater than 10000 nM; in experiment [2] (Homo sapiens, T47D, 72 h) it was greater than 10000 nM.
For `Cc1cc([C@@H](C)Nc2ccccc2C(=O)O)c2nc(N[C@@H](C)c3cccnc3)c(C#N)c(=O)n2c1` [Example 11-52, 2-(((R)-1-(3-cyano-7-methyl-4-oxo-2-(((S)-1-(pyridin-3-yl)ethyl)amino)-4H-pyrido[1,2-a]pyrimidin-9-yl)ethyl)amino)benzoic acid], the IC50 in experiment [1] (Homo sapiens, SK-BR-3, 72 h) is greater than 10000 nM; in experiment [2] (Homo sapiens, T47D, 72 h), 6640 nM.
As to `Cc1cc([C@@H](C)Nc2ccccc2C(=O)O)c2nc(N3CCC(c4cc[nH]n4)CC3)c(C#N)c(=O)n2c1` [Example 11-53, (R)-2-((1-(2-(4-(1H-pyrazol-3-yl)piperidin-1-yl)-3-cyano-7-methyl-4-oxo-4H-pyrido[1,2-a]pyrimidin-9-yl)ethyl)amino)benzoic acid], the half-maximal inhibitory concentration (IC50) in experiment [1] (Homo sapiens, SK-BR-3, 72 h) was greater than 10000 nM; in experiment [2] (Homo sapiens, T47D, 72 h), 2520 nM.
In the case of `Cc1cc([C@@H](C)Nc2ccccc2C(=O)O)c2nc(N3CCC4(CC3)CC(F)(F)C4)c(C)c(=O)n2c1` [Example 11-54, (R)-2-((1-(2-(2,2-difluoro-7-azaspiro[3.5]nonan-7-yl)-3,7-dimethyl-4-oxo-4H-pyrido[1,2-a]pyrimidin-9-yl)ethyl)amino)benzoic acid], the IC50 in experiment [1] (Homo sapiens, SK-BR-3, 72 h) is greater than 10000 nM; in experiment [2] (Homo sapiens, T47D, 72 h) it was 325 nM.
On to `Cc1cc([C@@H](C)Nc2ccccc2C(=O)O)c2nc(N3CCC4(CCO4)CC3)c(C#N)c(=O)n2c1` [Example 11-55, (R)-2-((1-(3-cyano-7-methyl-4-oxo-2-(1-oxa-7-azaspiro[3.5]nonan-7-yl)-4H-pyrido[1,2-a]pyrimidin-9-yl)ethyl)amino)benzoic acid], for which the IC50 in experiment [1] (Homo sapiens, SK-BR-3, 72 h) was greater than 10000 nM; in experiment [2] (Homo sapiens, T47D, 72 h) it was 219 nM.
Turning to `Cc1cc([C@@H](C)Nc2ccccc2C(=O)O)c2nc(N3CCC4(CCO4)CC3)c(C)c(=O)n2c1` [Example 11-56, (R)-2-((1-(3,7-dimethyl-4-oxo-2-(1-oxa-7-azaspiro[3.5]nonan-7-yl)-4H-pyrido[1,2-a]pyrimidin-9-yl)ethyl)amino)benzoic acid], the IC50 was greater than 10000 nM in experiment [1] (Homo sapiens, SK-BR-3, 72 h) and 264 nM in experiment [2] (Homo sapiens, T47D, 72 h).
Take `CO[C@H]1CN(c2nc3c([C@@H](C)Nc4ccccc4C(=O)O)cc(C)cn3c(=O)c2C)CCC1(F)F` [Example 11-57, 2-(((R)-1-(2-((S)-4,4-difluoro-3-methoxypiperidin-1-yl)-3,7-dimethyl-4-oxo-4H-pyrido[1,2-a]pyrimidin-9-yl)ethyl)amino)benzoic acid]: the half-inhibitory concentration (IC50) is greater than 10000 nM in experiment [1] (Homo sapiens, SK-BR-3, 72 h) and 132 nM in experiment [2] (Homo sapiens, T47D, 72 h).
`CO[C@@H]1CN(c2nc3c([C@@H](C)Nc4ccccc4C(=O)O)cc(C)cn3c(=O)c2C)CCC1(F)F` [Example 11-58, 2-(((R)-1-(2-((R)-4,4-difluoro-3-methoxypiperidin-1-yl)-3,7-dimethyl-4-oxo-4H-pyrido[1,2-a]pyrimidin-9-yl)ethyl)amino)benzoic acid]: the IC50 in experiment [1] (Homo sapiens, SK-BR-3, 72 h) was greater than 10000 nM; in experiment [2] (Homo sapiens, T47D, 72 h), 170 nM.
With `Cc1cc([C@@H](C)Nc2ccccc2C(=O)O)c2nc(N3CC[C@@H](C)C(F)(F)C3)c(C)c(=O)n2c1` [Example 11-59, 2-(((R)-1-(2-((R)-3,3-difluoro-4-methylpiperidin-1-yl)-3,7-dimethyl-4-oxo-4H-pyrido[1,2-a]pyrimidin-9-yl)ethyl)amino)benzoic acid], the IC50 in experiment [1] (Homo sapiens, SK-BR-3, 72 h) is greater than 10000 nM; in experiment [2] (Homo sapiens, T47D, 72 h) it was 273 nM.
Regarding `Cc1cc([C@@H](C)Nc2ccccc2C(=O)O)c2nc(N3CC[C@H](C)C(F)(F)C3)c(C)c(=O)n2c1` [Example 11-60, 2-(((R)-1-(2-((S)-3,3-difluoro-4-methylpiperidin-1-yl)-3,7-dimethyl-4-oxo-4H-pyrido[1,2-a]pyrimidin-9-yl)ethyl)amino)benzoic acid], the IC50 is greater than 10000 nM in experiment [1] (Homo sapiens, SK-BR-3, 72 h) and 158 nM in experiment [2] (Homo sapiens, T47D, 72 h).
